Tested on: Metabolism protein genes
Test: DNA chip mRNA expression in yeast, metabolism protein genes (Table 7)
Format: cell-based, Saccharomyces cerevisiae S288C
Procedure: Yeast (Saccharomyces cerevisiae S288C (α SUC2mal mel gap2 CUP1)) were incubated at 25° C. on YPD medium (yeast extract 1%, polypepton 2%, glucose 2%). One of toxic chemical substances was added to the cells at logarithmic growth phase, and the cells were further incubated for two hours. Cells were cultured without any chemical substance in the same condition, and were used as control. Concentrations of the chemical substances were defined to inhibit the growth of the yeast but not lead to death.
After completion of the incubation, the culture was centrifuged to collect the cells. To the cells, sodium acetate buffer (50 mM sodium acetate, 10 mM EDTA, 1% SDS) was added, and the mixture was shaken at 65° C. for five minutes, followed by returning to room temperature, and obtaining the supernatant, of which the procedures were repeated two times. To the supernatant, ½ amount of a solution of phenol/chloroform was added, and the mixture was centrifuged to give a supernatant, which was added with an equal amount of chloroform, and the mixture was centrifuged to give a supernatant. To the supernatant, an equal amount of isopropanol containing 0.3 M sodium acetate was added, and the mixture was allowed to stand at room temperature for 30 minutes, after which the mixture was centrifuged to give a sediment of the whole RNAs. Seventy % ethanol was added to the sediment, and the mixture was again centrifuged to give a sediment, which was then dried and dissolved in water. mRNA was isolated from the whole RNAs as followings. In view of the fact that a poly A chain is attached to the 3′ terminus of mRNA, a polynucleotide having a poly T structure which was immobilized on the surface of latex beads was used to trap the mRNA, and then the mRNA was washed and eluted with spine column (Oligotex-dT30<Super>mRNA Purification Kit, Takara). Reverse transcription of the mRNA was conducted with a reverse transcriptase (Super Script II Reverse Transcriptase; catalogue No. 18064-014, GibcoBRL) using fluorescence-labeled nucleotides to give cDNAs that were introduced with Cy3-dUTP or Cy5-dUTP during the reverse transcription.
The labeled cDNAs were dissolved in TE buffer (10mM Tris-HCl/1 mM EDTA, pH8.0), and the solution was dropped on the DNA chip containing the whole genes of yeast (DNA Chip Research Inc. Japan) so that the cDNAs were hybridized on the DNA chip at 65° C. for over 12 hours. The fluoresces intensity of the DNA chip was read with a scanner, and the ratio relative to the fluorescence intensity resulting from the absence of chemical substance was estimated as the following, which is shown in Tables 1 to 9: […]

## [Cl][Pb][Cl] [(4), PbCl2]
Yeast gene YAL012W
  The level of expressed mRNA in the presence of chemical substance/The level of expressed mRNA in the absence of chemical substance: 0.8
Yeast gene YAL038W
  The level of expressed mRNA in the presence of chemical substance/The level of expressed mRNA in the absence of chemical substance: 1.4
Yeast gene YBR003W
  level of expressed mRNA in the presence/in the absence of chemical substance: 1.9
Yeast gene YBR011C
  level of expressed mRNA in the presence/in the absence of chemical substance: 1.1
Yeast gene YBR020W
  level of expressed mRNA in the presence/in the absence of chemical substance: 1.9
Yeast gene YBR023C
  The level of expressed mRNA in the presence of chemical substance/The level of expressed mRNA in the absence of chemical substance: 1.1
Yeast gene YBR029C
  The level of expressed mRNA in the presence of chemical substance/The level of expressed mRNA in the absence of chemical substance: 1.0
Yeast gene YBR183W
  The level of expressed mRNA in the presence of chemical substance/The level of expressed mRNA in the absence of chemical substance: 2.9
Yeast gene YBR222C
  The level of expressed mRNA in the presence of chemical substance/The level of expressed mRNA in the absence of chemical substance: 0.8
Yeast gene YBR256C
  The level of expressed mRNA in the presence of chemical substance/The level of expressed mRNA in the absence of chemical substance: 1.3
Yeast gene YCL009C
  The level of expressed mRNA in the presence of chemical substance/The level of expressed mRNA in the absence of chemical substance: 0.5
Yeast gene YCL064C
  The level of expressed mRNA in the presence of chemical substance/The level of expressed mRNA in the absence of chemical substance: 0.8
Yeast gene YCR010C
  level of expressed mRNA in the presence/in the absence of chemical substance: 4.2
Yeast gene YCR034W
  level of expressed mRNA in the presence/in the absence of chemical substance: 0.9
Yeast gene YCR048W
  The level of expressed mRNA in the presence of chemical substance/The level of expressed mRNA in the absence of chemical substance: 0.6
Yeast gene YCR098C
  The level of expressed mRNA in the presence of chemical substance/The level of expressed mRNA in the absence of chemical substance: 2.0
Yeast gene YDR019C
  The level of expressed mRNA in the presence of chemical substance/The level of expressed mRNA in the absence of chemical substance: 4.0
Yeast gene YDR050C
  level of expressed mRNA in the presence/in the absence of chemical substance: 1.8
Yeast gene YDR073W
  level of expressed mRNA in the presence/in the absence of chemical substance: 1.4
Yeast gene YDR123C
  level of expressed mRNA in the presence/in the absence of chemical substance: 2.1
Yeast gene YDR178W
  level of expressed mRNA in the presence/in the absence of chemical substance: 2.2
Yeast gene YDR277C
  level of expressed mRNA in the presence/in the absence of chemical substance: 3.0
Yeast gene YDR284C
  level of expressed mRNA in the presence/in the absence of chemical substance: 2.9
Yeast gene YDR345C
  level of expressed mRNA in the presence/in the absence of chemical substance: 2.6
Yeast gene YDR380W
  The level of expressed mRNA in the presence of chemical substance/The level of expressed mRNA in the absence of chemical substance: 1.7
Yeast gene YDR400W
  level of expressed mRNA in the presence/in the absence of chemical substance: 0.7
Yeast gene YDR408C
  level of expressed mRNA in the presence/in the absence of chemical substance: 4.1
Yeast gene YDR483W
  level of expressed mRNA in the presence/in the absence of chemical substance: 2.0
Yeast gene YDR497C
  The level of expressed mRNA in the presence of chemical substance/The level of expressed mRNA in the absence of chemical substance: 1.3
Yeast gene YDR502C
  The level of expressed mRNA in the presence of chemical substance/The level of expressed mRNA in the absence of chemical substance: 1.2
Yeast gene YDR516C
  The level of expressed mRNA in the presence of chemical substance/The level of expressed mRNA in the absence of chemical substance: 2.1
Yeast gene YEL063C
  level of expressed mRNA in the presence/in the absence of chemical substance: 1.3
Yeast gene YER015W
  level of expressed mRNA in the presence/in the absence of chemical substance: 1.5
Yeast gene YER026C
  The level of expressed mRNA in the presence of chemical substance/The level of expressed mRNA in the absence of chemical substance: 1.0
Yeast gene YER053C
  The level of expressed mRNA in the presence of chemical substance/The level of expressed mRNA in the absence of chemical substance: 1.7
Yeast gene YER069W
  The level of expressed mRNA in the presence of chemical substance/The level of expressed mRNA in the absence of chemical substance: 1.4
Yeast gene YER081W
  level of expressed mRNA in the presence/in the absence of chemical substance: 1.4
Yeast gene YER096W
  The level of expressed mRNA in the presence of chemical substance/The level of expressed mRNA in the absence of chemical substance: 2.0
Yeast gene YER120W
  level of expressed mRNA in the presence/in the absence of chemical substance: 0.8
Yeast gene YER178W
  The level of expressed mRNA in the presence of chemical substance/The level of expressed mRNA in the absence of chemical substance: 1.0
Yeast gene YFL011W
  level of expressed mRNA in the presence/in the absence of chemical substance: 3.3
Yeast gene YFL014W
  The level of expressed mRNA in the presence of chemical substance/The level of expressed mRNA in the absence of chemical substance: 11.0
Yeast gene YFL030W
  The level of expressed mRNA in the presence of chemical substance/The level of expressed mRNA in the absence of chemical substance: 2.0
Yeast gene YFL031W
  The level of expressed mRNA in the presence of chemical substance/The level of expressed mRNA in the absence of chemical substance: 0.7
Yeast gene YFL056C
  The level of expressed mRNA in the presence of chemical substance/The level of expressed mRNA in the absence of chemical substance: 1.5
Yeast gene YFL057C
  The level of expressed mRNA in the presence of chemical substance/The level of expressed mRNA in the absence of chemical substance: 1.8
Yeast gene YFR047C
  The level of expressed mRNA in the presence of chemical substance/The level of expressed mRNA in the absence of chemical substance: 2.6
Yeast gene YGL012W
  level of expressed mRNA in the presence/in the absence of chemical substance: 1.2
Yeast gene YGL022W
  The level of expressed mRNA in the presence of chemical substance/The level of expressed mRNA in the absence of chemical substance: 0.3
Yeast gene YGL115W
  level of expressed mRNA in the presence/in the absence of chemical substance: 2.0
Yeast gene YGL126W
  The level of expressed mRNA in the presence of chemical substance/The level of expressed mRNA in the absence of chemical substance: 0.8
Yeast gene YGL205W
  level of expressed mRNA in the presence/in the absence of chemical substance: 0.8
Yeast gene YGL209W
  The level of expressed mRNA in the presence of chemical substance/The level of expressed mRNA in the absence of chemical substance: 2.6
Yeast gene YGL248W
  The level of expressed mRNA in the presence of chemical substance/The level of expressed mRNA in the absence of chemical substance: 0.7
Yeast gene YGR037C
  The level of expressed mRNA in the presence of chemical substance/The level of expressed mRNA in the absence of chemical substance: 0.8
Yeast gene YGR055W
  The level of expressed mRNA in the presence of chemical substance/The level of expressed mRNA in the absence of chemical substance: 0.7
Yeast gene YGR096W
  level of expressed mRNA in the presence/in the absence of chemical substance: 4.6
Yeast gene YGR191W
  level of expressed mRNA in the presence/in the absence of chemical substance: 1.5
Yeast gene YGR194C
  The level of expressed mRNA in the presence of chemical substance/The level of expressed mRNA in the absence of chemical substance: 2.1
Yeast gene YGR204W
  level of expressed mRNA in the presence/in the absence of chemical substance: 1.3
Yeast gene YGR256W
  The level of expressed mRNA in the presence of chemical substance/The level of expressed mRNA in the absence of chemical substance: 0.8
Yeast gene YGR282C
  The level of expressed mRNA in the presence of chemical substance/The level of expressed mRNA in the absence of chemical substance: 1.9
Yeast gene YGR288W
  level of expressed mRNA in the presence/in the absence of chemical substance: 2.6
Yeast gene YHR025W
  level of expressed mRNA in the presence/in the absence of chemical substance: 0.6
Yeast gene YHR111W
  The level of expressed mRNA in the presence of chemical substance/The level of expressed mRNA in the absence of chemical substance: 1.9
Yeast gene YHR123W
  level of expressed mRNA in the presence/in the absence of chemical substance: 1.0
Yeast gene YHR137W
  The level of expressed mRNA in the presence of chemical substance/The level of expressed mRNA in the absence of chemical substance: 1.7
Yeast gene YHR174W
  The level of expressed mRNA in the presence of chemical substance/The level of expressed mRNA in the absence of chemical substance: 1.2
Yeast gene YHR176W
  The level of expressed mRNA in the presence of chemical substance/The level of expressed mRNA in the absence of chemical substance: 1.4
Yeast gene YHR210C
  level of expressed mRNA in the presence/in the absence of chemical substance: 5.2
Yeast gene YIL006W
  level of expressed mRNA in the presence/in the absence of chemical substance: 2.9
Yeast gene YIL045W
  The level of expressed mRNA in the presence of chemical substance/The level of expressed mRNA in the absence of chemical substance: 2.2
Yeast gene YIL107C
  The level of expressed mRNA in the presence of chemical substance/The level of expressed mRNA in the absence of chemical substance: 1.5
Yeast gene YIL154C
  The level of expressed mRNA in the presence of chemical substance/The level of expressed mRNA in the absence of chemical substance: 0.8
Yeast gene YIL155C
  The level of expressed mRNA in the presence of chemical substance/The level of expressed mRNA in the absence of chemical substance: 3.7
Yeast gene YIR034C
  The level of expressed mRNA in the presence of chemical substance/The level of expressed mRNA in the absence of chemical substance: 0.6
Yeast gene YIR036C
  The level of expressed mRNA in the presence of chemical substance/The level of expressed mRNA in the absence of chemical substance: 1.8
Yeast gene YJL031C
  The level of expressed mRNA in the presence of chemical substance/The level of expressed mRNA in the absence of chemical substance: 1.3
Yeast gene YJL068C
  The level of expressed mRNA in the presence of chemical substance/The level of expressed mRNA in the absence of chemical substance: 1.6
Yeast gene YJL088W
  The level of expressed mRNA in the presence of chemical substance/The level of expressed mRNA in the absence of chemical substance: 0.5
Yeast gene YJL099W
  The level of expressed mRNA in the presence of chemical substance/The level of expressed mRNA in the absence of chemical substance: 1.3
Yeast gene YJL121C
  level of expressed mRNA in the presence/in the absence of chemical substance: 0.8
Yeast gene YJL167W
  level of expressed mRNA in the presence/in the absence of chemical substance: 1.1
Yeast gene YJL172W
  The level of expressed mRNA in the presence of chemical substance/The level of expressed mRNA in the absence of chemical substance: 1.5
Yeast gene YJL216C
  level of expressed mRNA in the presence/in the absence of chemical substance: 0.9
Yeast gene YJL219W
  The level of expressed mRNA in the presence of chemical substance/The level of expressed mRNA in the absence of chemical substance: 1.6
Yeast gene YJR077C
  level of expressed mRNA in the presence/in the absence of chemical substance: 1.6
Yeast gene YJR137C
  The level of expressed mRNA in the presence of chemical substance/The level of expressed mRNA in the absence of chemical substance: 0.8
Yeast gene YJR143C
  level of expressed mRNA in the presence/in the absence of chemical substance: 0.8
Yeast gene YJR148W
  The level of expressed mRNA in the presence of chemical substance/The level of expressed mRNA in the absence of chemical substance: 3.5
